# Laboratory results reported in PMC7387440, “EGCG impedes human Tau aggregation and interacts with Tau” (Scientific Reports, 2020).
# Molecular target: T1, full-length Tau (human Tau40wt) (Homo sapiens, UniProt P10636)
# T1 construct: gene MAPT; full-length recombinant Tau (Tau40wt, 441 residues)
# Assay: isothermal titration calorimetry ([…] Tau titrated with […] EGCG)
# Assay type: binding
# T1 sequence (P10636 1-441 isoform P10636-8): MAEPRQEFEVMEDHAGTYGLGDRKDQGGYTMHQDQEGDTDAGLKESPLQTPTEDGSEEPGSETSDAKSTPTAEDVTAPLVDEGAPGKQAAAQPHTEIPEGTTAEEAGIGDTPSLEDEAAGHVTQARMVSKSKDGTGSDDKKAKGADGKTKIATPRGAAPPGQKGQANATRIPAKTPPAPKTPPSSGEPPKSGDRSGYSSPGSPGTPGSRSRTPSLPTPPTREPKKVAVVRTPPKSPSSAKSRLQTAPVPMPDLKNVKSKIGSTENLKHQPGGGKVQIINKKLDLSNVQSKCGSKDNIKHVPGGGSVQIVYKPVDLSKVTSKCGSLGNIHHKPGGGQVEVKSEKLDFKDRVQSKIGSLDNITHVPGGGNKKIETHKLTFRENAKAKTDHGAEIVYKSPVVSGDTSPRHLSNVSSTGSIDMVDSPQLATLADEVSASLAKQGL
compound,measurement,value
O=C(O[C@@H]1Cc2c(O)cc(O)cc2O[C@@H]1c1cc(O)c(O)c(O)c1)c1cc(O)c(O)c(O)c1 [EGCG],Kd,74 nM
